Laboratory results from ChEMBL document CHEMBL1201862, “PubChem BioAssay data set” (2004).
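Compound exposure: 48 hours, 5 concentrations, 96-well plates. Here, GI50 denotes the concentration required for 50% inhibition of growth.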 Calls of active or inactive are those of the source. Cut-off read from the data, not from the text of the source: active = GI50 up to about 1.1 µM and inactive = higher.

Tests used:
Assay in all cases: NCI-60 cell line screen, 48 h
T47D = system: T47D
A498 = system: A498
HCT-15 = system: HCT-15
SR = system: SR
HL-60 = system: HL-60
KM12 = system: KM12
NCI-H226 = system: NCI-H226
M14 = system: M14
HOP-62 = system: HOP-62
OVCAR-8 = system: OVCAR-8
RXF 393 = system: RXF 393
SNB-75 = system: SNB-75
MDA-MB-435 = system: MDA-MB-435
UO-31 = system: UO-31
RPMI-8226 = system: RPMI-8226
NCI/ADR-RES = system: NCI/ADR-RES
NCI-H460 = system: NCI-H460
SK-MEL-5 = system: SK-MEL-5
SF-268 = system: SF-268

Structure (SMILES)	GI50 (T47D)	GI50 (A498)	GI50 (HCT-15)	GI50 (SR)	GI50 (HL-60)	GI50 (KM12)	GI50 (NCI-H226)	GI50 (M14)	GI50 (HOP-62)	GI50 (OVCAR-8)	GI50 (RXF 393)	GI50 (SNB-75)	GI50 (MDA-MB-435)	GI50 (UO-31)	GI50 (RPMI-8226)	GI50 (NCI/ADR-RES)	GI50 (NCI-H460)	GI50 (SK-MEL-5)	GI50 (SF-268)
Clc1ccc(-c2nnc(-c3cccc4ccccc34)o2)cc1Cl	> 100 µM (inactive)	> 100 µM (inactive)	> 100 µM	40.3 µM (inactive)	1.03 µM (active)	> 100 µM (inactive)	> 100 µM (inactive)	> 100 µM (inactive)	> 100 µM (inactive)	> 100 µM (inactive)	> 100 µM (inactive)	> 100 µM (inactive)	> 100 µM (inactive)	> 100 µM (inactive)	> 100 µM (inactive)	> 100 µM (inactive)	> 100 µM (inactive)	> 100 µM (inactive)	> 100 µM (inactive)
CN(C)CCn1c(=O)c2ccc(NCCCN(C)CCCNc3ccc4c(=O)n(CCN(C)C)c(=O)n5c6ccc([N+](=O)[O-])cc6c(=O)c3c45)c3c(=O)c4cc([N+](=O)[O-])ccc4n(c1=O)c23	0.0968 µM (active)	0.0478 µM (active)	< 0.015 µM	< 0.01 µM (active)	< 0.027 µM (active)	< 0.01 µM (active)	< 0.01 µM (active)	0.057 µM (active)	< 0.01 µM (active)	< 0.01 µM (active)	0.0122 µM (active)	< 0.01 µM (active)	< 0.0173 µM (active)	0.0129 µM (active)	< 0.01 µM (active)	0.0802 µM (active)	< 0.01 µM (active)	< 0.0115 µM (active)	0.0163 µM (active)
Cc1ccc(NCCCN2CCN(CCCNc3ccc(C)c4sc5ccccc5c(=O)c34)CC2)c2c(=O)c3ccccc3sc12	58.7 µM (inactive)	82 µM (inactive)	> 100 µM	> 100 µM (inactive)	> 100 µM (inactive)	> 100 µM (inactive)	> 100 µM (inactive)	> 100 µM (inactive)	> 100 µM (inactive)	> 100 µM (inactive)	39.4 µM (inactive)	20.6 µM (inactive)	> 100 µM (inactive)	> 100 µM (inactive)	> 100 µM (inactive)	> 100 µM (inactive)	> 100 µM (inactive)	> 100 µM (inactive)	34.2 µM (inactive)
O=C(c1ccc(Cl)cc1)N(Cc1cccnc1)C(=S)N(Cc1cccnc1)C(=O)c1ccc(Cl)cc1	57.4 µM (inactive)	30.5 µM (inactive)	33.9 µM	50.4 µM (inactive)	33.2 µM (inactive)	35.4 µM (inactive)	43.5 µM (inactive)	22.7 µM (inactive)	50.7 µM (inactive)	29.6 µM (inactive)	43.6 µM (inactive)	37.1 µM (inactive)	40.2 µM (inactive)	34.2 µM (inactive)	13.2 µM (inactive)	31.2 µM (inactive)	44.2 µM (inactive)	27.5 µM (inactive)	28.3 µM (inactive)
Cn1c(=O)c2c(nc3n(Cc4ccccc4)c(=O)c(NCCBr)cn23)n(C)c1=O	21.1 µM (inactive)	34.9 µM (inactive)	34.8 µM	6.43 µM (inactive)	38.8 µM (inactive)	63.5 µM (inactive)	19.9 µM (inactive)	33.1 µM (inactive)	18.8 µM (inactive)	14.7 µM (inactive)	14.9 µM (inactive)	20 µM (inactive)	49.5 µM (inactive)	13 µM (inactive)	23.8 µM (inactive)	21.8 µM (inactive)	26.9 µM (inactive)	26.2 µM (inactive)	25.8 µM (inactive)
NS(=O)(=O)c1ccc(NNc2c3ccccc3nc3ccccc23)cc1	7.52 µM (inactive)	18.3 µM (inactive)	10 µM	10.8 µM (inactive)	8.63 µM (inactive)	11.6 µM (inactive)	10.3 µM (inactive)	11.2 µM (inactive)	12.2 µM (inactive)	11.8 µM (inactive)	13.2 µM (inactive)	12.9 µM (inactive)	12.4 µM (inactive)	10.9 µM (inactive)	9.4 µM (inactive)	14 µM (inactive)	12.2 µM (inactive)	12.7 µM (inactive)	12.2 µM (inactive)
FC(F)(F)c1ccc2c(-c3cc[nH]c3)ccnc2c1	> 100 µM (inactive)	23.8 µM (inactive)	> 100 µM	27 µM (inactive)	16.7 µM (inactive)	31.8 µM (inactive)	36.9 µM (inactive)	34.5 µM (inactive)	35.5 µM (inactive)	34.1 µM (inactive)	22.5 µM (inactive)	14.4 µM (inactive)	35 µM (inactive)	20.9 µM (inactive)	34.2 µM (inactive)	37.1 µM (inactive)	33.7 µM (inactive)	20.7 µM (inactive)	> 10 µM (inactive)
Cc1cccc(NC2=NCCO2)c1Cl	> 100 µM (inactive)	> 100 µM (inactive)	> 100 µM	> 100 µM (inactive)	> 100 µM (inactive)	> 100 µM (inactive)	> 100 µM (inactive)	> 100 µM (inactive)	> 100 µM (inactive)	> 100 µM (inactive)	> 100 µM (inactive)	> 100 µM (inactive)	> 100 µM (inactive)	> 100 µM (inactive)	> 100 µM (inactive)	> 100 µM (inactive)	> 100 µM (inactive)	> 100 µM (inactive)	> 100 µM (inactive)
COC(C(=O)C(O)C(C)O)C1CC2C=C3C=C(OC4CC(OC5CC(O)C(OC)C(C)O5)C(OC(C)=O)C(C)O4)C(C)C(O)=C3C(O)=C2C(=O)C1OC1CC(OC2CC(OC3CC(C)(O)C(OC(=O)C(C)C)C(C)O3)C(O)C(C)O2)C(O)C(C)O1 (stereo unspecified)	< 0.01 µM (active)	< 0.01 µM (active)	< 0.01 µM	< 0.01 µM (active)	< 0.01 µM (active)	< 0.01 µM (active)	< 0.01 µM (active)	< 0.01 µM (active)	< 0.01 µM (active)	< 0.01 µM (active)	< 0.01 µM (active)	< 0.01 µM (active)	< 0.01 µM (active)	< 0.01 µM (active)	< 0.01 µM (active)	< 0.01 µM (active)	< 0.01 µM (active)	< 0.01 µM (active)	< 0.01 µM (active)
C=C1CC2(CC(c3ccccc3C)OC(c3ccccc3C)C2)OC1=O (stereo unspecified)	1.72 µM (inactive)	8.99 µM (inactive)	1.95 µM	2.15 µM (inactive)	1.6 µM (inactive)	2.18 µM (inactive)	7.78 µM (inactive)	1.59 µM (inactive)	10.7 µM (inactive)	2.19 µM (inactive)	2.29 µM (inactive)	3.23 µM (inactive)	1.71 µM (inactive)	4.08 µM (inactive)	0.473 µM (active)	3.48 µM (inactive)	2.96 µM (inactive)	1.86 µM (inactive)	1.83 µM (inactive)
O=C1C2=C(CC3=C(C2)CS(=O)(=O)C3)C(=O)C2=C1CC1=C(C2)CS(=O)(=O)C1	2.34 µM (inactive)	43.7 µM (inactive)	34.1 µM	4.4 µM (inactive)	8.93 µM (inactive)	> 19.7 µM (inactive)	24.4 µM (inactive)	> 37.7 µM (inactive)	20.5 µM (inactive)	24.2 µM (inactive)	27.3 µM (inactive)	> 20.9 µM (inactive)	9.18 µM (inactive)	38.1 µM (inactive)	28.6 µM (inactive)	16.3 µM (inactive)	> 31.5 µM (inactive)	16.3 µM (inactive)	> 26.4 µM (inactive)
CC1(CCCC2(C)CCNC2=O)OCCO1 (stereo unspecified)	> 10 µM (inactive)	> 10 µM (inactive)	> 10 µM	> 10 µM (inactive)	> 10 µM (inactive)	> 10 µM (inactive)	> 10 µM (inactive)	> 10 µM (inactive)	> 10 µM (inactive)	> 10 µM (inactive)	> 10 µM (inactive)	> 10 µM (inactive)	> 10 µM (inactive)	> 10 µM (inactive)	> 10 µM (inactive)	> 10 µM (inactive)	> 10 µM (inactive)	> 10 µM (inactive)	> 10 µM (inactive)
CN(C)CCN1C(=O)CC[C@@]2(C)C1=CC[C@@H]1[C@@H]2CC[C@@]2(C)[C@H]1CC[C@]2(C)O	> 100 µM (inactive)	> 100 µM (inactive)	> 100 µM	> 100 µM (inactive)	> 100 µM (inactive)	> 100 µM (inactive)	> 100 µM (inactive)	> 100 µM (inactive)	> 100 µM (inactive)	> 100 µM (inactive)	> 100 µM (inactive)	> 100 µM (inactive)	> 100 µM (inactive)	> 100 µM (inactive)	> 100 µM (inactive)	> 100 µM (inactive)	> 100 µM (inactive)	> 100 µM (inactive)	> 100 µM (inactive)
CCc1nc(N)nc(N)c1-c1ccc(N(C)Cc2ccccc2)c([N+](=O)[O-])c1	1.71 µM (inactive)	0.552 µM (active)	< 0.01 µM	0.0187 µM (active)	< 0.01 µM (active)	0.191 µM (active)	3.31 µM (inactive)	0.064 µM (active)	0.13 µM (active)	0.0466 µM (active)	3.61 µM (inactive)	2.22 µM (inactive)	0.0811 µM (active)	0.458 µM (active)	0.191 µM (active)	0.184 µM (active)	< 0.01 µM (active)	0.022 µM (active)	0.303 µM (active)
